From ChEMBL document CHEMBL4270559, “Structural insight into the optimization of ethyl 5-hydroxybenzo[g]indol-3-carboxylates and their bioisosteric analogues as 5-LO/m-PGES-1 dual inhibitors able to suppress inflammation” (Eur J Med Chem, 2018)

Legend:
Prostaglandin E synthase = biological target: T1, Prostaglandin E synthase (Homo sapiens, UniProt O14684); experiment: Inhibition of mPGES-1 in microsomal membranes isolated from IL-1beta-stimulated human A549 cells preincubated for 15 mins followed by PGH2 addition measured after 1 mins by RP-HPLC analysis; format: cell membranes
T1 sequence (O14684 whole entry): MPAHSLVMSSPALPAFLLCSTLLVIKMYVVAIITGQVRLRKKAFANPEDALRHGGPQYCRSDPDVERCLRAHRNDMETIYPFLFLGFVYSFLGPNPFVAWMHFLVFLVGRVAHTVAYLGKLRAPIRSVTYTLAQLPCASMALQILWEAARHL

[1] = biological target: T2, Polyunsaturated fatty acid 5-lipoxygenase (Homo sapiens, UniProt P09917); experiment: Inhibition of 5-LO in human peripheral blood neutrophils using arachidonic acid as substrate preincubated for 15 mins followed by substrate addition measured after 10 mins by RP-HPLC analysis
T2 sequence (P09917 whole entry): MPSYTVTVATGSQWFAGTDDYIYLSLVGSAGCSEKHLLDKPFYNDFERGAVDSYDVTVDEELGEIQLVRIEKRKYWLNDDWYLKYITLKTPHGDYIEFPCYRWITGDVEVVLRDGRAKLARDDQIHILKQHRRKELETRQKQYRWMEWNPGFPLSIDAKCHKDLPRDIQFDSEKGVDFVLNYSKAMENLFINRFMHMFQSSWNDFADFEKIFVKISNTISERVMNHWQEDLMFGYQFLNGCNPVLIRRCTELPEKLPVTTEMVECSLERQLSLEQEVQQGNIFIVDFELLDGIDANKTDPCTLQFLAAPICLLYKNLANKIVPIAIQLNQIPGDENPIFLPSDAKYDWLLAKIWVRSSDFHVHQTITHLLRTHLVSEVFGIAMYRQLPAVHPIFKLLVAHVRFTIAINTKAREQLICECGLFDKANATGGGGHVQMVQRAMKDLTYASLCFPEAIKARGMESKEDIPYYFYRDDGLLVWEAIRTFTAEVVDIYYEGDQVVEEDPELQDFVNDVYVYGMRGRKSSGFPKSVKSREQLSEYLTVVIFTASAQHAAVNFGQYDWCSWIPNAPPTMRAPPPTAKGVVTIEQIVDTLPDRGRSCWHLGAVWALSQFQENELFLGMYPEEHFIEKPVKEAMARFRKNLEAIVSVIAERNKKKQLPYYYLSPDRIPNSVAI

[2] = biological target: T2, Polyunsaturated fatty acid 5-lipoxygenase; experiment: Inhibition of recombinant human 5-LO expressed in Escherichia coli BL21 using arachidonic acid as substrate preincubated for 15 mins followed by substrate addition measured after 10 mins by RP-HPLC analysis
Mus musculus [3] = experiment: Anti-inflammatory activity in carrageenan-induced ICR mouse model of inflammation assessed as reduction in paw edema at 4 mg/kg, ip administered 30 mins prior to carrageenan challenge measured at 4 hrs post carrageenan challenge by plethysmometric method relative to control; format: functional; set-up: scale not given: the % may be the effect or the level left
[4] = biological target: T3, Prostaglandin E synthase (Homo sapiens) (UniProt O14684); experiment: Inhibition of mPGES-1 in microsomal membranes isolated from IL-1beta-stimulated human A549 cells assessed as residual activity preincubated for 15 mins followed by PGH2 addition measured after 1 mins by RP-HPLC analysis relative to control; format: cell membranes
T3 sequence (whole entry): T1 sequence (O14684 whole entry)

Mus musculus [5] = experiment: Anti-inflammatory activity in carrageenan-induced ICR mouse model of inflammation assessed as reduction in paw edema at 4 mg/kg, ip administered 30 mins prior to carrageenan challenge measured at 2 to 6 hrs post carrageenan challenge by plethysmometric method relative to control; format: functional; set-up: scale not given: the % may be the effect or the level left
Mus musculus [6] = experiment: Anti-inflammatory activity in carrageenan-induced ICR mouse model of inflammation assessed as reduction in paw edema at 20 mg/kg, ip administered 30 mins prior to carrageenan challenge measured at 2 to 6 hrs post carrageenan challenge by plethysmometric method relative to control; format: functional; set-up: scale not given: the % may be the effect or the level left

Row | IC50 (Prostaglandin E synthase) [nM] | IC50 [1] [nM] | IC50 [2] [nM] | Activity [4] [%] | Structure (SMILES) | Activity (Mus musculus [3]) [%] | Activity (Mus musculus [5]) [%] | Activity (Mus musculus [6]) [%]
1 | 960 |  |  |  | CCOC(=O)c1c(Cc2ccccc2Cl)[nH]c2c1cc(O)c1ccccc12 |  |  | 
2 |  | 670 | 370 |  | CCOC(=O)c1c(-c2ccccc2F)oc2c1cc(O)c1ccccc12 |  |  | 
3 | 3400 |  |  |  | CCOC(=O)c1c(-c2ccc(Cl)cc2)[nH]c2c1cc(O)c1ccccc12 |  |  | 
4 | 480 | 130 | 130 |  | CCOC(=O)c1c(-c2ccc(Cl)c(Cl)c2)[nH]c2c1cc(O)c1ccccc12 | 47.3 |  | 
5 |  | 150 | 100 | 50.6 | CCOC(=O)c1c(-c2ccccc2F)[nH]c2c1cc(O)c1ccccc12 |  |  | 
6 |  | 2320 | 1060 |  | CCOC(=O)c1c(-c2ccc(Br)cc2F)oc2c1cc(O)c1ccccc12 |  |  | 
7 | 2130 | 230 | 110 |  | CCOC(=O)c1c(-c2cc(Br)ccc2F)[nH]c2c1cc(O)c1ccccc12 | 73.95 |  | 
8 | 2540 | 200 | 160 |  | CCOC(=O)c1c(-c2ccccc2Br)[nH]c2c1cc(O)c1ccccc12 |  |  | 
9 |  | 790 | 160 |  | CCOC(=O)c1c(-c2ccccc2Br)oc2c1cc(O)c1ccccc12 |  |  | 
10 |  | 1360 | 220 |  | CCOC(=O)c1c(-c2ccccc2OC)oc2c1cc(O)c1ccccc12 |  |  | 
11 |  | 420 | 480 |  | CCOC(=O)c1c(C)[nH]c2c1cc(O)c1ccccc12 |  |  | 
12 | 4200 | 94 | 169 |  | CCOC(=O)c1c(Cc2c(F)cccc2F)[nH]c2c1cc(O)c1ccccc12 |  | 81 | 
13 |  | 1860 | 370 |  | CCOC(=O)c1c(-c2ccccc2Cl)oc2c1cc(O)c1ccccc12 |  |  | 
14 |  | 1160 | 782 | 78.1 | CCOC(=O)c1c(Cc2c(Cl)cccc2Cl)[nH]c2c1cc(O)c1ccccc12 |  |  | 
15 |  | 3740 | 130 |  | CCOC(=O)c1c(-c2ccc(Cl)cc2)oc2c1cc(O)c1ccccc12 |  |  | 
16 | 7060 | 300 | 120 |  | CCOC(=O)c1c(-c2cc(C)cc(C)c2)[nH]c2c1cc(O)c1ccccc12 |  |  | 
17 | 2560 | 120 | 140 |  | CCOC(=O)c1c(-c2cccc(C)c2)[nH]c2c1cc(O)c1ccccc12 |  |  | 
18 | 4200 | 45 | 54 |  | CCOC(=O)c1c(Cc2ccc(Cl)c(Cl)c2)[nH]c2c1cc(O)c1ccccc12 |  | 73 | 
19 |  |  |  |  | CC(c1cc2ccccc2s1)N(O)C(N)=O (centres undefined) [ZILEUTON] |  |  | 38.2
20 | 8600 | 210 | 190 |  | CCOC(=O)c1c(-c2ccccc2OC)[nH]c2c1cc(O)c1ccccc12 |  |  | 
21 | 1190 | 210 | 130 |  | CCOC(=O)c1c(-c2cccc(Br)c2)[nH]c2c1cc(O)c1ccccc12 |  |  | 
22 |  | 4490 | 2030 |  | CCOC(=O)c1c(-c2cc(Br)ccc2F)oc2c1cc(O)c1ccccc12 |  |  | 
23 | 12700 | 420 | 110 |  | CCOC(=O)c1c(-c2ccccc2C)[nH]c2c1cc(O)c1ccccc12 |  |  | 
24 |  | 1240 | 1700 |  | CCOC(=O)c1c(-c2ccc(Cl)c(Cl)c2)oc2c1cc(O)c1ccccc12 |  |  | 
25 |  | 240 | 130 |  | CCOC(=O)c1c(-c2ccccc2Cl)[nH]c2c1cc(O)c1ccccc12 |  |  | 
26 | 58800 | 130 | 298 |  | CCOC(=O)c1c(Cc2c(C)cc(C)cc2C)[nH]c2c1cc(O)c1ccccc12 |  |  | 
27 |  | 1640 | 860 |  | CCOC(=O)c1c(-c2cccc(Br)c2)oc2c1cc(O)c1ccccc12 |  |  | 
28 |  | 3920 | 460 |  | CCOC(=O)c1c(-c2cccc(Cl)c2)oc2c1cc(O)c1ccccc12 |  |  | 
29 | 3430 | 860 | 270 |  | CCOC(=O)c1c(-c2ccc(Br)cc2F)[nH]c2c1cc(O)c1ccccc12 | 69.35 |  | 
